How the values were obtained:
[1] = test system: human monocytes differentiated into macrophages under lactic acidosis (LA-Mφ); assay: Metabolite quantification in culture supernatants and acetyl-CoA in lysates; type: cell-based
Experimental: Peripheral blood mononuclear cells (PBMC) were obtained from healthy human volunteers (Blood collection center, Angers, France; agreement ANG-2017-01) by standard density-gradient centrifugation on lymphocyte separation medium (Eurobio, Courtaboeuf, France). CD14+ monocytes were then isolated by positive magnetic cell-sorting (Miltenyi Biotec, Bergisch Gladbach, Germany). Monocytes (1×10^6 cells/mL) were cultured in complete medium (CM) consisting of RPMI 1640 (Lonza, Verviers, Belgium) supplemented with 10% fetal calf serum (FCS) (Eurobio), 2 mM L-glutamine, 1 mM sodium pyruvate, 0.1 mM non-essential amino acids, 10 mM HEPES, 100 U/mL penicillin and 100 μg/mL streptomycin (all from Lonza) in the presence of 50 ng/mL GM-CSF (R&D Systems, Minneapolis, MN).
Experiments were performed in the presence of 10 mM lactic acid (Sigma-Aldrich, St Louis, MO) resulting in a pHe of 6.5 to generate LA-Mφ (lactic acidosis conditioning), 12.35 mM HCl to reach a final pHe of 6.5 and to generate HCl-Mφ(acidosis conditioning), 10 mM sodium lactate (Sigma-Aldrich) to generate lactate-Mφ (lactosis conditioning, pH 7.3), in the absence or presence of 5 mM lithium acetoacetate (AcAc) (Sigma-Aldrich, St Louis, MO).
The levels of glucose, glutamine, free L-amino acids and lactate in cell culture supernatants, and of acetyl-CoA in whole-cell lysates were determined, together with the intracellular ADP/ATP ratio, with enzymatic assays (Abcam), according to the manufacturer's instructions. […] Acetoacetate concentrations were quantified with β-hydroxybutyrate dehydrogenase (3-HBDH) (Roche Applied Science), an enzyme that catalyzes the reversible reduction of acetoacetate to β-hydroxybutyrate in the presence of excess NADH, with the concomitant oxidation of NADH. The progress of the reaction was monitored by measuring the decrease in 340 nm absorbance due to the conversion of NADH into NAD. AcAc consumption was determined by subtracting the concentration of AcAc in cell culture supernatants from that in cell-free culture supernatants.

[2] = test system: PBMC from septic shock patients; assay: Mitochondrial depolarization in cultured PBMC from sepsis patients; type: cell-based, human; details: 24 h, medium with 5 mM AcAc, FIG. 4B
Experimental: Mitochondrial membrane potential was assessed by incubating with 10 nM MitoTracker Green and 5 nM MitoTracker DeepRed (Thermo Fisher Scientific, Waltham, MA) in PBS containing 1% (w/v) BSA in PBS (PBS/BSA) at 37° C. for 15 min. Cells were washed and incubated with 0.5 μg/mL DAPI to exclude dead cells. Flow cytometry data were acquired with a FACSCanto II flow cytometer (BD Biosciences, San Jose, CA) and analyzed with FlowJo software (Tree Star, Ashland, OR).
Peripheral blood mononuclear cells (PBMC) from septic patients and healthy subjects were purified by standard density-gradient centrifugation on lymphocyte separation medium (Eurobio, Courtaboeuf, France). PBMC were cultured for 24 h in a medium consisting of RPMI 1640 medium with L-glutamine and without glucose (Lonza, Verviers, Belgium) and supplemented with 6% FCS (Eurobio), 3% autologous plasma, 0.5 g/L glucose, 100 U/mL penicillin and 100 μg/mL streptomycin (all from Lonza) in the presence of 2 ng/mL GM-CSF (R&D Systems). In some experiments, the culture medium was supplemented with 5 mM AcAc or adjusted to 4 g/L glucose. After 24 h culture, the percentage of cells with depolarized mitochondria was assessed as described above. After 3 days of culture, intracellular ATP has been quantified as described above.

[3] = test system: PBMC from septic shock patients; assay: Intracellular ATP in PBMC from septic shock patients; type: cell-based, human; details: 5 mM AcAc, normalized on 0.5 g/L glucose, FIG. 1B
Experimental: The intracellular levels of ATP in whole-cell lysates were determined with enzymatic assays (Abcam, Cambridge, UK), according to the manufacturer's instructions. ATP was quantified in (i) macrophages generated in the absence (Mφ) or presence of lactic acid (LA-Mφ) or of lactic acid and acetoacetate (LA-Mφ+AcAc), (ii) macrophages with or without depolarized mitochondria (“Depol” and “Pol” populations, respectively) isolated from day 3 LA-Mφ by flow cytometry using MitoTracker Green and MitoTracker Deep Red probes (purity>99%) and, (iii) PBMC isolated from septic shock patients (n=3) were cultured for 24 h in a medium containing 0.5 g/L glucose, supplemented with 5 mM of acetoacetate (AcAc) or with 2 g/L of glucose (Glc). Results are normalized on the condition 0.5 g/L glucose (None).
Peripheral blood mononuclear cells (PBMC) from septic patients and healthy subjects were purified by standard density-gradient centrifugation on lymphocyte separation medium (Eurobio, Courtaboeuf, France). […] After 24 h culture, the percentage of cells with depolarized mitochondria was assessed as described above. After 3 days of culture, intracellular ATP has been quantified as described above.

U937 cell line = details: cited from earlier work

SMILES: CC(=O)CC(=O)[O-].[Li+] [AcAc, lithium acetoacetate]
- uptake of glucose and amino acids and production of lactate ([1]; LA-Mφ in the presence of 5 mM AcAc, FIG. 2A-D): retain a partial capacity to take up glucose and amino acids and to produce lactate
- AcAc consumption by cells ([1]; LA-Mφ+AcAc culture supernatants, days 1 and 3, FIG. 2F): consume AcAc
- intracellular AcCoA levels ([1]; reduction induced by LA, in the presence of 5 mM AcAc): prevented the reduction of intracellular AcCoA levels
- percentage of cells with depolarized mitochondria [2]: significantly reduced
- levels of intracellular ATP [3]: increased
- IL-6 and TNF production (U937 cell line): enhance IL-6 and TNF production

— patent US20240325330A1, “NEW METHOD TO TREAT ACIDOSIS RELATED DISEASES WITH ACETOACETATE” (INSTITUT NATIONAL DE LA SANTÉ ET DE LA RECHERCHE MÉDICALE, priority 2021, published 2024)
